Reference: patent US20140142052A1, “PHOSPHORYLATED POLYOLS, PYROPHOSPHATES, AND DERIVATIVES THEREOF HAVING BIOLOGICAL ACTIVITY” (NormOxys, Inc., priority 2012, published 2014)

What was measured:
[1] = system: class I PI3K; test: PI3K HTRF assay (Reaction Biology), class I PI3K; assay type: biochemical, human; conditions: Yes = inhibition
[2] = molecular target: T1, Human PI3Kβ (p110β/p85α) (Homo sapiens, UniProt P42338); test: PI3K HTRF assay, PI3Kβ; assay type: biochemical
T1 construct: N-terminal 6His-tagged recombinant full-length human p110β; 6His (N); purchased Reaction Biology Corporation (RBC), Malvern, Pa; host or cells: Baculovirus infected Sf21 cells
T1 sequence (P42338 whole entry): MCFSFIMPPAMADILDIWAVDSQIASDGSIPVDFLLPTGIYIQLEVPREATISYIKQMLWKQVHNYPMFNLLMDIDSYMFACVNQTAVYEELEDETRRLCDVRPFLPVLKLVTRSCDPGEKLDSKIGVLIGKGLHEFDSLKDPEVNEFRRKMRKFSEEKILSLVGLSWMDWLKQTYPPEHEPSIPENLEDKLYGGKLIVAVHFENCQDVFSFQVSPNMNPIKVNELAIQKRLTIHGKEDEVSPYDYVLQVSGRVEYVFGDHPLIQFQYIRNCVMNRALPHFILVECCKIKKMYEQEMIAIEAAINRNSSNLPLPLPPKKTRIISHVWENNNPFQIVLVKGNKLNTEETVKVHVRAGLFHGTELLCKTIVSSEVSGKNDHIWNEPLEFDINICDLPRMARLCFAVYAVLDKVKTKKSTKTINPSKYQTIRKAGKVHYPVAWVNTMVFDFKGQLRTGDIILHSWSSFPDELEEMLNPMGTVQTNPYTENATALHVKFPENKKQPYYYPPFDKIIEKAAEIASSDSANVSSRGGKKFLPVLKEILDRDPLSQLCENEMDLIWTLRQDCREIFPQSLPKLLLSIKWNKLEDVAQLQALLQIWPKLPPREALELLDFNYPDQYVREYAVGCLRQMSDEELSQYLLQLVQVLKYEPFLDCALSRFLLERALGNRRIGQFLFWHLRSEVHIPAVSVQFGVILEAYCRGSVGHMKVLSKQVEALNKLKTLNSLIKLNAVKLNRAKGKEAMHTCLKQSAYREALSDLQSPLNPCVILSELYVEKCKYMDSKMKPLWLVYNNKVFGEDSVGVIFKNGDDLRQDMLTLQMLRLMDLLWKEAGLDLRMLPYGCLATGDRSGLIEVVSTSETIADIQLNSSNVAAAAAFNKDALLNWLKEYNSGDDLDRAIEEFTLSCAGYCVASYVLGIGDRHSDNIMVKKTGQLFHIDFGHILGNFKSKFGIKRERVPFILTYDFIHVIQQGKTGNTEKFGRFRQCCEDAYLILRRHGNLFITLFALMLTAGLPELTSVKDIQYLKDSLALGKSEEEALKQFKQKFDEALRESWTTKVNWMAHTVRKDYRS
T1 sequence (P27986 whole entry partner): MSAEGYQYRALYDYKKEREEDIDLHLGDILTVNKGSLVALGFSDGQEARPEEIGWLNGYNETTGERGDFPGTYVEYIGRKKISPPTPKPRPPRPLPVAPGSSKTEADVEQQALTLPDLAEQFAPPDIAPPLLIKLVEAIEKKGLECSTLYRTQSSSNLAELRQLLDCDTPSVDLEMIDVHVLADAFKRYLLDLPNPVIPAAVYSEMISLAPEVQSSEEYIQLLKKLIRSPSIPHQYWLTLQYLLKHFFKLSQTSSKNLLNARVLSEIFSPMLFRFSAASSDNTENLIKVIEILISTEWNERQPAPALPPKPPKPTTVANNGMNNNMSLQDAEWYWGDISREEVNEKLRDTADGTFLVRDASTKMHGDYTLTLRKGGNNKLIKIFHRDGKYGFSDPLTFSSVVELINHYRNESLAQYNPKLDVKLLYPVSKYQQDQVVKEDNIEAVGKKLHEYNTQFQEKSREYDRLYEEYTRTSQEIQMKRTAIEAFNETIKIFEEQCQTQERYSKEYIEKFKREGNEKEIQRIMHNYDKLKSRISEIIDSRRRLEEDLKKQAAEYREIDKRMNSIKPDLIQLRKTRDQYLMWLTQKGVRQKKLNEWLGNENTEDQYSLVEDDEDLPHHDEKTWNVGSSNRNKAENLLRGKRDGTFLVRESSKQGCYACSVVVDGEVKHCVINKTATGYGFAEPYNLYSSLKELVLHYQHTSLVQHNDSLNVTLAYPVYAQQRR

[3] = molecular target: T2, Human PI3Kδ (p110δ/p85α) (Homo sapiens, UniProt O00329); test: PI3K HTRF assay, PI3Kδ; assay type: biochemical
T2 construct: N-terminal GST tagged recombinant full-length human p110δ; GST (N); purchased Reaction Biology Corporation (RBC), Malvern, Pa; host or cells: Baculovirus infected Sf9 cells
T2 sequence (O00329 whole entry): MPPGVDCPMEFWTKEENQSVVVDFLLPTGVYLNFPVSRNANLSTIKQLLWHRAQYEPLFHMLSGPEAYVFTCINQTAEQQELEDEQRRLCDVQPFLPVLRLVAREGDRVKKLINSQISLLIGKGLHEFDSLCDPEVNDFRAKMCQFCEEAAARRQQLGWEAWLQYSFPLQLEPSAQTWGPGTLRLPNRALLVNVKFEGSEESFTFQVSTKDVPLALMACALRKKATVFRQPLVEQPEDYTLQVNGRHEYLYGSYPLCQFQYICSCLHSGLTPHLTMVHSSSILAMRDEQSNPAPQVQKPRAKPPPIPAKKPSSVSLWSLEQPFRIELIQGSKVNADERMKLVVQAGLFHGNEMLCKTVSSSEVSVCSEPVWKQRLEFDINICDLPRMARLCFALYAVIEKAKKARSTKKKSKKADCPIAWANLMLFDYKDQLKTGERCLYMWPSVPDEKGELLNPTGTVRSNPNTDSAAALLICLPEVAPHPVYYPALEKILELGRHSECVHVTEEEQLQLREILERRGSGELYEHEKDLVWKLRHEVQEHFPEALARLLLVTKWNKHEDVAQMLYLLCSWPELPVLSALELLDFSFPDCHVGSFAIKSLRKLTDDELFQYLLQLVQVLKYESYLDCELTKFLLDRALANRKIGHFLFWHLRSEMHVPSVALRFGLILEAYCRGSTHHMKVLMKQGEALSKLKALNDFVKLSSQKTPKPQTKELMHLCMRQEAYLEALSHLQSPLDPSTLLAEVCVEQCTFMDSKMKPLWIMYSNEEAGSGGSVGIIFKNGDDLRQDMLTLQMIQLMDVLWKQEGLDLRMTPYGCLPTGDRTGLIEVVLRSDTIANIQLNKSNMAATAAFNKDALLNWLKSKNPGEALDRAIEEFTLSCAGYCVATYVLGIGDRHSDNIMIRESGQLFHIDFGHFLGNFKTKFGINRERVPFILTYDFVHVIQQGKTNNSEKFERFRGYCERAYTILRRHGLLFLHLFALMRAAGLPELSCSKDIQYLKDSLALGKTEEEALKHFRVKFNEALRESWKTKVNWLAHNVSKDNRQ
T2 sequence (P27986 whole entry partner): as the sequence (P27986 whole entry partner) above

[4] = molecular target: hemoglobin (Homo sapiens, UniProt P68871+P69905); conditions: background statement; can displace Hb-bound BPG; cited from earlier work
Sequence of hemoglobin (P69905 2-142 limits assumed): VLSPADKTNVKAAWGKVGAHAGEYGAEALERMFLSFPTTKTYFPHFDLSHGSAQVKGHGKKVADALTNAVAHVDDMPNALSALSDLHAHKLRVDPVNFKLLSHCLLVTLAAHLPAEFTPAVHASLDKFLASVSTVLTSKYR
Sequence of hemoglobin (P68871 2-147 limits assumed): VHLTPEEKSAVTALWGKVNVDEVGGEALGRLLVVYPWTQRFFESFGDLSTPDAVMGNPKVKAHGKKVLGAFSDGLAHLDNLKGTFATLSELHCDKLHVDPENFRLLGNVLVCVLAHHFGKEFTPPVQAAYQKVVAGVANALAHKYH

[5] = molecular target: T3, free hemoglobin (Hb) (Homo sapiens, UniProt P68871+P69905); test: Oxygen equilibrium curve (Hemox Analyzer), P50 on free hemoglobin; assay type: biochemical; conditions: blood matrix Hb, 100 mM compound; for P50 (Torr): effector/Hb ratio 20, pH 7.4, 37° C., n=3; for P50 increase (%): versus P50 control
T3 construct: the cells were hemolysed by addition of 2 volumes of cold distilled water; tissue EFS-Alsace; host or cells: red blood cell concentrate
T3 sequence (P69905 2-142 limits assumed): as the sequence (P69905 2-142 limits assumed) above
T3 sequence (P68871 2-147 limits assumed): as the sequence (P68871 2-147 limits assumed) above
Description: (§1) Some of the compounds described herein were tested for P50, the partial pressure of oxygen for half-saturation, on free hemoglobin (Hb) as well as human whole blood (WB) in different concentrations.
The hemoglobin solution was prepared from red blood cells concentrate (EFS-Alsace) by washing three times with 1 volume of saline (1500×g, 10 min), the cells were hemolysed by addition of 2 volumes of cold distilled water. After centrifugation (7000×g, 30 min) for stroma removal, 5 ml of the clear hemoglobin solution were placed on a 2.5 cm×30 cm column of Sephadex G-25 equilibrated with 0.1 M sodium chloride+10^−5 M EDTA. The protein was eluted with the same solution at a rate of about 20 ml/h [Benesch, R.; Benesch, R. E. and Yu, C. I. Reciprocal binding of oxygen and diphosphoglycerate by human hemoglobin. Proc. Natl. Acad. Sci. USA (1968) 59, 526-532].
The allosteric modulation of the effectors was measured by the change in p50, the partial pressure of oxygen for half-saturation. The pH of the compound solutions was adjusted to approximately 7.0. Oxygen equilibrium curves (OEC) were carried out with the Hemox Analyzer (TCS Scientific Co.) under the following conditions: pH 7.4, 135 mM NaCl, 5 mM KCl and 30 mM TES (N—[tris(hydroxymethyl)methyl]-2-aminoethanesulfonic acid) buffer at 37° C. The concentration of free hemoglobin was 5·10^−3 M (577 nm, ε=58.4 mM^−1 cm^−1 per tetramer) and the final concentrations of the allosteric effectors were of 1.0·10^−1 M, resulting in an effector/Hb ratio of 20.

[6] = molecular target: T4, hemoglobin in human whole blood (WB) (Homo sapiens, UniProt P68871+P69905); test: Oxygen equilibrium curve (Hemox Analyzer), P50 in human whole blood; assay type: cell-based; conditions: blood matrix WB; for P50 (Torr): incubated 1-2 h at 37° C., n=3; for P50 increase (%): versus P50 control
T4 construct: Human whole blood was freshly withdrawn from healthy donors in heparinized microtubes; from tissue; host or cells: fresh human whole blood from healthy donors
T4 sequence (P69905 2-142 limits assumed): as the sequence (P69905 2-142 limits assumed) above
T4 sequence (P68871 2-147 limits assumed): as the sequence (P68871 2-147 limits assumed) above
Description: as §1
Human whole blood was freshly withdrawn from healthy donors in heparinized microtubes. The pH of the compound solutions was adjusted to approximately 7.0 and whole blood volumes at 1:1 ratios were incubated individually for 1-2 h at 37° C. with the above compounds. The measurement of the OEC was carried out with the Hemox Analyzer (TCS Scientific Co.) under the following conditions: pH 7.4, 135 mM NaCl, 5 mM KCl and 30 mM TES (N-[tris(hydroxymethyl)methyl]-2-aminoethanesulfonic acid) buffer at 37° C.

Compound: O=P1(O)OC2C3OP(=O)(O)OP(=O)(O)OC3C3OP(=O)(O)OP(=O)(O)OC3C2OP(=O)(O)O1 (stereo not shown) [OXY111A, Myo-ITPP]
- PI3 Kinase Inhibition [1]: Yes
- activity against PI3Kβ [2]: showed activity
- activity against PI3Kδ [3]: showed activity

Compound: CCOC(=O)[C@@H]1OP(=O)([O-])OP(=O)([O-])O[C@H]1C(=O)OCC.[Na+].[Na+] [OXY3012, L-DET]
- PI3 Kinase Inhibition [1]: Yes

Compound: O=P(O)(O)O[C@H]1[C@H](OP(=O)(O)O)[C@@H](OP(=O)(O)O)[C@H](OP(=O)(O)O)[C@@H](OP(=O)(O)O)[C@H]1OP(=O)(O)O [Phytic acid, myo-inositol hexakisphosphate]
- potency relative to BPG (fold) [4]: 1000 fold

Compound: O=P(O)(O)OCC(OP(=O)(O)O)C(COP(=O)(O)O)OP(=O)(O)O (stereo not drawn) [SP1-134, meso-erythritol tetraphosphate]
- P50 (Torr) [5]: 29.40 ± 1.20 Torr
- P50 increase (%) [5]: 151%
- P50 (Torr) ([6]; 120 mM compound): 30.17 ± 0.94 Torr
- P50 increase (%) ([6]; 120 mM compound): 17%

Compound: Dibutyl-L-tartrate bisphosphate [SP1-219]
- P50 (Torr) ([6]; 60 mM compound): 30.91 ± 1.76 Torr
- P50 increase (%) ([6]; 60 mM compound): 11%
- P50 (Torr) ([6]; 120 mM compound): 30.77 ± 1.44 Torr
- P50 increase (%) ([6]; 120 mM compound): 11%

Compound: L-tartrate bisphosphate [SP1-90]
- P50 (Torr) [5]: 24.76 ± 1.31 Torr
- P50 increase (%) [5]: 127%

Compound: meso-Me Galactarate [OXY3006]
- PI3 Kinase Inhibition [1]: Yes
